Paper PMC8899516, “Structure-Activity Relationship Studies of 4-((4-(2-fluorophenyl)piperazin-1-yl)methyl)-6-imino-N-(naphthalen-2-yl)-1,3,5-triazin-2-amine (FPMINT) Analogues as Inhibitors of Human Equilibrative Nucleoside Transporters” (Frontiers in Pharmacology, 2022)

Experiments:
ENT2 = target: T1, ENT2 (Homo sapiens, UniProt Q14542); experiment: [3H]uridine uptake in PK15NTD/ENT2 cells; assay type: cell-based; conditions: [3H]uridine 1 μM, 1 min, PK15NTD/ENT2 cells; read-out: IC50 against ENT2
T1 construct: expressed in transfected cells
T1 sequence (Q14542 1-456): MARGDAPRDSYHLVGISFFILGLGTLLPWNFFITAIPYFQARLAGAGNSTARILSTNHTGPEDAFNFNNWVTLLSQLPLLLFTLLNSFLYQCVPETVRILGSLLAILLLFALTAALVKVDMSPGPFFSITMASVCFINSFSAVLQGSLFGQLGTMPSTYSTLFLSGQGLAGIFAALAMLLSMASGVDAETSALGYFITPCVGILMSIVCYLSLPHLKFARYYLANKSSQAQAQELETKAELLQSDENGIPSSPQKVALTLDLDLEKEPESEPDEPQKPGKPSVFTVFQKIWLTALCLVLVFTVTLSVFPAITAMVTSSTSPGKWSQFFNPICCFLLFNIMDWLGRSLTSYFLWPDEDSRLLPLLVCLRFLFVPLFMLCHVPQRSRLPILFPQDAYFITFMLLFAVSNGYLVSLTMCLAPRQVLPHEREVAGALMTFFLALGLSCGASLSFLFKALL
Method: (§1) Nucleoside transporter-deficient porcine kidney fibroblast cells (PK15NTD) stably transfected with cloned human ENT1 or ENT2 ([Ward et al., 2000]) were used as the in vitro models. The cells were cultured in Dulbecco’s Modified Eagle’s Medium (DMEM) supplemented with 10% (v/v) foetal bovine serum, 0.5 mg/ml geneticin, 100 units/ml penicillin, 100 μg/ml streptomycin and 0.25 μg/ml of amphotericin B at 37°C in 5% CO2/95% air.
The cells were incubated with different concentrations of FPMINT analogues (from 10 nM to 100 μM) containing [^3H]uridine (2 μCi/ml, 1 μM) for 1 min. Passive uridine uptake was determined by incubating the cells in HEPES-buffered Ringer’s solution containing [^3H]uridine in the presence of 0.5 mM NBMPR. The cells were rapidly washed five times with ice-cold phosphate-buffered saline (PBS). After air-drying, the cells were solubilised by overnight incubation in 500 μl of 5% Triton-X100. Next, 300 μl of the cell lysates were mixed with 2 ml of scintillation liquid. The radioactivity of each sample was quantified by a scintillation counter. The protein content in each well was determined spectrophotometrically using a commercial bicinchoninic acid assay (Pierce Biochemicals, Rockford, IL). Uptake values were expressed as picomoles of [^3H]uridine per milligram of cellular protein per minute.
(§2) All data were analysed by GraphPad Prism software (San Diego, CA, United States). Data are expressed as mean ± standard error (SE) of three experiments performed in triplicate. The IC50 values were determined from the dose-response curves fitted with a logistic function. For the kinetic study of [^3H]uridine uptake, apparent K m and V max values were determined from the Michaelis-Menten equation, and K i was determined from the X-intercept of linear regression. Analysis of variance and Student’s t-test were performed for multiple and paired variables, respectively. p values of <0.05 were considered to be statistically significant.

ENT1 = target: T2, ENT1 (Homo sapiens, UniProt Q99808); experiment: Kinetic study of [3H]uridine uptake in PK15NTD/ENT1 cells; assay type: cell-based
T2 construct: expressed in transfected cells
T2 sequence (Q99808 1-456): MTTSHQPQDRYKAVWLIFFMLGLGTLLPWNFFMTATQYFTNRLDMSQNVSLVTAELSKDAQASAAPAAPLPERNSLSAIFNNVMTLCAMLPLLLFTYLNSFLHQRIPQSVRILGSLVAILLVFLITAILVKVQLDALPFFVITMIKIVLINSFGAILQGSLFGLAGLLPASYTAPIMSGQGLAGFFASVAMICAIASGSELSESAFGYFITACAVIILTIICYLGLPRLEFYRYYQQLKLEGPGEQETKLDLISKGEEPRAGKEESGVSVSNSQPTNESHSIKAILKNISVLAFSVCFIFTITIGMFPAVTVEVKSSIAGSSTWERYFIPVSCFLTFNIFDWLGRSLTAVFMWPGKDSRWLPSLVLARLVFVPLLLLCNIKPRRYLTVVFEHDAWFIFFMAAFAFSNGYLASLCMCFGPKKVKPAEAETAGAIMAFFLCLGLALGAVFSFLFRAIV
Method: as §1
Confluent monolayers of PK15NTD/ENT1 and PK15NTD/ENT2 cells in 24-well plates were washed thrice with HEPES-buffered Ringer’s solution containing (mM): 135 NaCl, 10 glucose, 5 KCl, 5 HEPES, 3.33 NaH2PO4, 1.0 CaCl2, 1.0 MgCl2, 0.83 Na2HPO4; pH 7.4. The cells were incubated with different concentrations of FPMINT analogues (from 10 nM to 100 μM) containing [^3H]uridine (2 μCi/ml, 1 μM) for 1 min. Passive uridine uptake was determined by incubating the cells in HEPES-buffered Ringer’s solution containing [^3H]uridine in the presence of 0.5 mM NBMPR. The cells were rapidly washed five times with ice-cold phosphate-buffered saline (PBS). After air-drying, the cells were solubilised by overnight incubation in 500 μl of 5% Triton-X100. Next, 300 μl of the cell lysates were mixed with 2 ml of scintillation liquid. The radioactivity of each sample was quantified by a scintillation counter. The protein content in each well was determined spectrophotometrically using a commercial bicinchoninic acid assay (Pierce Biochemicals, Rockford, IL). Uptake values were expressed as picomoles of [^3H]uridine per milligram of cellular protein per minute.
as §2
Compound 3c was selected for further investigation. The kinetic study of [^3H]uridine transport was performed by measuring the concentration-dependent uptake of [^3H]uridine. This study could provide clue about the mode of action of compound 3c. The uptake of [^3H]uridine by ENT1 and ENT2 was saturable and conformed to Michaelis-Menten kinetics. Compound 3c decreased the V max of ENT1 but had no effect on K m . […] The slopes of the linear 1/V versus 1/[S] plots increased with the concentration of compound 3c (Figure 4B).
FIGURE 4 Competitive inhibition of ENT1 and ENT2 by compound 3c. Kinetic study of [^3H]uridine uptake (0.1 μM–1 mM) was measured in (A) PK15NTD/ENT1 and (D) PK15NTD/ENT2 cells in the presence of various concentrations of compound 3c (0, 0.01, 0.1, 1 and 10 µM) (B,E) 1/V versus 1/[S] plots of each curve in (A) and (D), respectively (C,F) The plot of slopes of each line in (B) and (E), respectively, versus the concentration of compound 3c. Data are presented as mean ± SE of three experiments.

Cc1cccc(Nc2nc(N)nc(CN3CCN(c4ccc(F)cc4)CC3)n2)c1 [Compound 3c]
IC50 (ENT2): 570 nM
apparent Vmax of ENT1 (ENT1; 0.01 µM compound 3c): 2083 ± 36.80 pmol/mg protein/min
apparent Vmax of ENT1 (ENT1; 0.1 µM compound 3c): 1867 ± 27.63 pmol/mg protein/min
apparent Vmax of ENT1 (ENT1; 1 µM compound 3c): 1377 ± 37.81 pmol/mg protein/min
apparent Vmax of ENT1 (ENT1; 10 µM compound 3c): 732.9 ± 12.02 pmol/mg protein/min
mode of inhibition of ENT1-mediated uridine transport (ENT1; decreased Vmax, apparent Km unchanged): non-competitive inhibitor
Ki (ENT1; x-intercept of slopes versus concentration plot): 2790 nM
